Results published in PubChem BioAssay (NCI).
“And” between values parts separate entries of the source, which are not always exact repeats. Equal values may be shown once.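 How tested: cells in 96-well plates exposed to compound for 48 hours at five concentrations. The concentration for 50% growth inhibition is given as GI50. TGI marks complete inhibition of growth.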

Legend:
Assay in all cases: NCI-60 cell line screen, 48 h
A549 NSCLC = tested on: A549 NSCLC
EKVX NSCLC = tested on: EKVX NSCLC
HT29 colon = tested on: HT29 colon
NCI-H23 lung = tested on: NCI-H23 lung
SF-295 CNS = tested on: SF-295 CNS
SK-MEL-2 melanoma = tested on: SK-MEL-2 melanoma
T-47D breast = tested on: T-47D breast
TK-10 renal = tested on: TK-10 renal
UACC-257 melanoma = tested on: UACC-257 melanoma
UACC-62 melanoma = tested on: UACC-62 melanoma

Structure (SMILES) | GI50 (A549 NSCLC) | TGI (A549 NSCLC) | GI50 (EKVX NSCLC) [nM] | TGI (EKVX NSCLC) | GI50 (HT29 colon) [nM] | TGI (HT29 colon) | GI50 (NCI-H23 lung) [nM] | TGI (NCI-H23 lung) | GI50 (SF-295 CNS) [nM] | TGI (SF-295 CNS) | GI50 (SK-MEL-2 melanoma) | TGI (SK-MEL-2 melanoma) | GI50 (T-47D breast) [nM] | TGI (T-47D breast) [µM] | GI50 (TK-10 renal) | TGI (TK-10 renal) [µM] | GI50 (UACC-257 melanoma) [µM] | TGI (UACC-257 melanoma) [µM] | GI50 (UACC-62 melanoma) | TGI (UACC-62 melanoma)
CCc1ccc(NC(=O)Nc2c[nH]c3ccccc23)cc1 | 6260 nM | > 48 µM | 9200 | > 55 µM | > 43500 | > 61200 nM | 36300 | > 54.1 µM | 23800 | > 56 µM | 35500 nM | > 52.1 µM | 16300 | > 82.2 | > 46.1 µM | > 70.9 | > 38.6 | > 59.9 | 31500 nM | > 51.7 µM
CC[C@H](Nc1nc(N)nc(C)c1C#N)c1nc2cccc(CN(C)c3ncc(C(=O)NO)cn3)c2c(=O)n1-c1ccccc1 | 2060 nM | 11.1 µM | 1690 | 16.9 µM | 800 | > 17600 nM | 1140 | 5.32 µM | 1280 | 3.81 µM | 1350 nM | 8.75 µM | 242 | – | 0.681 µM | 3.85 | 0.36 | 3.11 | 199 nM | 0.897 µM
COc1cc2c(cc1OC)-c1ccc3cc4c(cc3c1N(CCN1CCCC1)C2)OCO4 | 534 nM | 2.02 µM | 953 | 7.31 µM | 313 | 1470 nM | 447 | 2.14 µM | 441 | 3.1 µM | 7610 nM | 20.1 µM | 361 | 2.28 | 3.46 µM | 12.5 | 9.81 | 22.2 | 1070 nM | 3 µM
CCc1ccc(NCc2cc(OC)c(OC)c(OC)c2)cc1 | 693 nM and 216 nM | 98.2 µM and > 92.2 µM | – | > 96.1 µM and 84.3 µM | – | 1720 nM and 1390 nM | – | 24.8 µM and 15.1 µM | 74.1 | 6.29 µM and 1.99 µM | 255 nM and 106 nM | 23.9 µM and > 54 µM | – | 74.5 | 24.6 µM and 10.7 µM | > 100 | – | > 100 | 220 nM and 105 nM | 83.1 µM and > 85.3 µM
Cc1cc(N2CCCCC2)nc(N(CCNc2ccnc3cc(Cl)ccc23)Cc2ccco2)n1 | 2690 nM | 7.74 µM | 2090 | 6.07 µM | 1050 | 2840 nM | 1910 | 4.97 µM | 1510 | 3.12 µM | 2060 nM | 4.27 µM | 1820 | 4.32 | 1.94 µM | 4.08 | 2.35 | 5.79 | 1740 nM | 3.34 µM
N#CSc1ncnc2nc[nH]c12 | 50200 nM | > 100 µM | 41800 | > 100 µM | 9690 | > 100000 nM | 9960 | > 100 µM | 2530 | > 72.6 µM | 37600 nM | > 100 µM | 2250 | > 80 | 4.17 µM | > 100 | 26.2 | > 100 | 4100 nM | > 100 µM
